Assay results reported in US20100242125A1, “METHODS FOR CORRECTING MITOTIC SPINDLE DEFECTS AND OPTIMIZING PREIMPLANTATION EMBRYONIC DEVELOPMENTAL RATES ASSOCIATED WITH SOMATIC CELL NUCLEAR TRANSFER IN ANIMALS” (priority 2003, published 2010).

Tested on: NHP oocytes (SCC-intact) and rhesus enucleated cytoplasts
Assay: Taxol-induced microtubule recruitment; immunocytochemistry of HSET, NuMA, microtubules and DNA
Format: cell-based, rhesus (nonhuman primate)
Conditions: 10 μM paclitaxel
Source text: FIGS. 9A-9C show microtubule patterns (green) observed in rhesus cytoplast after enucleation (FIG. 9A) or following artificial activation at 24 (FIG. 9B) or at 48 hrs (FIG. 9C) post-ionomycin/DMAP. Following enucleation, no assembled cytoplasmic microtubules (FIG. 9A: green) are observed. After activation, abundant disarrayed microtubules (FIG. 9B: green) assemble in the DNA-less cytoplast. Rarely, a microtubule structure resembling a bipolar spindle (FIG. 9C: green) assembles in the cytoplasm. The insets of FIGS. 9A-9C show DNA imaging confirming successful removal of the SCC. […] Second meiotic chromosomes, are blue. FIGS. 9H-9J show a rhesus enucleated cytoplast treated for 30 minutes with 10 μM paclitaxel prior to fixation and detection of DNA (H, blue), microtubules (I, red), and HSET (J, green). The assembled cytoplasmic microtubule bundles are not labeled by HSET antibody. FIGS. 9A-9C and 9E are double-labeled images for microtubules (green) and DNA (blue). FIGS. 9D, 9F, and 9G are triple-labeled images for HSET (green), microtubules (red) and DNA (blue). FIGS. 9H-9J are single-labeled images for DNA (blue), microtubules (red), and HSET (green). Bars represent 10 μm.
FIGS. 10D and 10E show NuMA detection in the somatic cell nuclei of cumulus (FIG. 10D: green) and rhesus fibroblast cells (FIG. 10E: green; red, microtubules). […] NuMA (green) is strongly detected in the decondensed male pronucleus (MPn), but diminished in the unsuccessful fibroblast cell (arrowhead) attached at the oocyte surface. In the upper inset of FIG. 10F, red depicts microtubules while blue depicts DNA. In the lower inset of FIG. 10F, the sperm centrosome organizes a microtubule astral array (arrow) near the decondensed male pronucleus. […] NuMA (green) is found at both poles on the intact metaphase-II spindle (red) with aligned chromosomes (blue) as well as at the base of the condensed sperm head (blue, arrow). However, NuMA (green) is missing from the disorganized multipolar NT spindle microtubules (red) assembling around the scattered somatic cell chromosomes (blue). […] NuMA (green) is detected at the poles in both the NT spindle (lower arrow; red, microtubules; blue, DNA) and the intact second meiotic metaphase spindle (upper arrow; red, microtubules; blue, DNA). […]
Imaging. […] NuMA, HSET (human spleen embryonic tissue and testis), and Eg5 were detected using rabbit polyclonal antibodies as described in Mountain, 147 J. CELL BIOL. […] Primary antibodies were detected using Alexa secondary antibodies (Alexa-546 goat anti-mouse IgG; Alexa-488 goat anti-rabbit IgG; Molecular Probes, Eugene, Oreg.). […] DNA was fluorescently detected with 10 μg/ml Hoechst 33342 (Sigma) and 1 μM Toto-3 (Molecular Probes) added to the penultimate rinse. […]

`CC(=O)O[C@H]1C(=O)[C@@]2(C)[C@H]([C@H](OC(=O)c3ccccc3)[C@]3(O)C[C@H](OC(=O)[C@H](O)[C@@H](NC(=O)c4ccccc4)c4ccccc4)C(C)=C1C3(C)C)[C@]1(OC(C)=O)CO[C@@H]1C[C@@H]2O` [Paclitaxel] was tested, and the NuMA localization (SCC-intact mature NHP oocyte, 20 minutes (FIG. 10C)) was “NuMA localization at disorganized spindle poles”, the cytoplasmic microtubule assembly (enucleated cytoplast lacking the SCC, 30 minutes (FIG. 9I)) was “numerous cytoplasmic microtubule bundles assembled in the cytoplasm” and the “HSET detection at cytoplasmic microtubule bundles” value (enucleated cytoplast lacking the SCC, 30 minutes (FIG. 9J)) was “without HSET protein detection”. For the same compound, the HSET protein localization (intact mature oocyte, 30 minutes (FIG. 9G)) was “enhanced HSET protein only at the second meiotic spindle poles”.
